Data: BigSolDB 2.1

In the case of `C=C1CCC[C@]2(C)C[C@]3(O)OC(=O)C(C)=C3C[C@@H]12`, the solubility (mole fraction) (in diethyl ether, 283.2 K) is reported as 0.00277, the solubility (mole fraction) (in diethyl ether, 288.2 K) is reported as 0.00375 and the solubility (mole fraction) (in diethyl ether, 293.2 K) is reported as 0.00562. The solubility (mole fraction) (in diethyl ether, 298.2 K) was 0.00738, the solubility (mole fraction) (in diethyl ether, 303.2 K) was 0.00939 and the solubility (mole fraction) (in ethanol, 283.2 K) was 0.00443. The solubility (mole fraction) (in ethanol, 288.2 K) was 0.00547, the solubility (mole fraction) (in ethanol, 293.2 K) was 0.00673 and the solubility (mole fraction) (in ethanol, 298.2 K) was 0.00809. For the same compound, the solubility (mole fraction) (in ethanol, 303.2 K) was 0.00966, the solubility (mole fraction) (in ethanol, 308.2 K) was 0.0113 and the solubility (mole fraction) (in ethanol, 313.2 K) was 0.0131. The solubility (mole fraction) (in ethanol, 318.2 K) was 0.0151, the solubility (mole fraction) (in ethanol, 323.2 K) was 0.0171 and the solubility (mole fraction) (in ethyl acetate, 283.2 K) was 0.0224. It also gave a solubility (mole fraction) (in ethyl acetate, 288.2 K) of 0.0228, a solubility (mole fraction) (in ethyl acetate, 293.2 K) of 0.0236 and a solubility (mole fraction) (in ethyl acetate, 298.2 K) of 0.0242. For the same compound, the solubility (mole fraction) (in ethyl acetate, 303.2 K) was 0.0252, the solubility (mole fraction) (in ethyl acetate, 308.2 K) was 0.0261 and the solubility (mole fraction) (in ethyl acetate, 313.2 K) was 0.0271. The solubility (mole fraction) (in ethyl acetate, 318.2 K) was 0.0282, the solubility (mole fraction) (in ethyl acetate, 323.2 K) was 0.0293 and the solubility (mole fraction) (in n-hexane, 283.2 K) was 2.44e-05. The solubility (mole fraction) (in n-hexane, 288.2 K) was 4.12e-05, the solubility (mole fraction) (in n-hexane, 293.2 K) was 6.39e-05 and the solubility (mole fraction) (in n-hexane, 298.2 K) was 8.32e-05. The solubility (mole fraction) (in n-hexane, 303.2 K) was 0.000113, the solubility (mole fraction) (in n-hexane, 308.2 K) was 0.000153 and the solubility (mole fraction) (in n-hexane, 313.2 K) was 0.000202. It also gave a solubility (mole fraction) (in n-hexane, 318.2 K) of 0.000272 and a solubility (mole fraction) (in n-hexane, 323.2 K) of 0.000336.
